The subject of series [1] is Malassezia furfur NBRC 0656. Briefly: Antibacterial test I (MIC) by a liquid culture method. Type of series: cell-based. Particulars: Sabouraud glucose medium + 1% olive oil, shaking at 30° C., 10^6cfu/mL. As for the experimental part: With respect to the composition of zinc pyrithione and hydrous titanium oxide of Example 2, an antibacterial test (MIC) against Malassezia furfur by a liquid culture method was performed in comparison with zinc pyrithione.
Sample 17: Composition of zinc pyrithione (manufactured by Arch Chemicals, Inc.) and hydrous titanium oxide (Example 2) Sample 18: Zinc pyrithione (manufactured by Arch Chemicals, Inc.) Test fungi: Malassezia furfur NBRC 0656 Test medium: 1% olive oil is added to Sabouraud glucose medium Test conditions: shaking culture at 30° C. for 4 days (120 rpm)

Series [2] is described as follows: Solubility in artificial seawater (zinc determined by atomic absorption spectrometry). The format is physicochemical. The method, then: The solubility of samples shown below in artificial sweater was measured.
Artificial sweater (pH of 7.8) was added to each sample shown below to make total amount of 500 mL, followed by shaking at 20° C. for 24 hours. After filtration, determination of zinc was performed by subjecting the filtrate to atomic absorption spectrometry.

Series [3] in a line: Yellowness (b* value) of water suspension samples allowed to stand outside for 10 days (photolysis). The format is physicochemical. As to conditions: suspension in distilled water, dried and ground.
Experimental: The following water suspension samples are charged in a glass bottle, allowed to stand outside for 10 days, dried and ground, and then yellowness (b* value) was measured by a colorimeter.
In series [4] the test system is Malassezia furfur NBRC 0656. The series can be described thus: Antibacterial test II (MIC) by an agar medium. Type of series: cell-based. Particulars: YM agar medium added with olive oil, 28° C., 10^5cfu/mL. The method, then:
With respect to the composition of zinc pyrithione and hydrous titanium oxide (Example 3), an antibacterial test (MIC) against Malassezia furfur by an agar medium was performed in comparison with zinc pyrithione.
Sample 19: Composition of zinc pyrithione (manufactured by Kolon Life Science Inc.) and hydrous titanium oxide (Example 3) Sample 20: Zinc pyrithione (manufactured by Kolon Life Science Inc.) Test fungi: Malassezia furfur NBRC 0656 Test medium: YM agar medium added with olive oil Test conditions: culture at 28° C. for 7 days

Setting [5] is: artificial seawater pH 7.8, shaking at 20° C. for 24 hours, filtrate.

This note sets out measurements from patent US20100272829A1, “COMPOSITION FOR TRANSDERMAL OR TRANSMUCOSAL ADMINISTRATION” (priority 2007, published 2010).

On to zinc pyrithione [Sample 2], for which the “MIC, 2 days” value in series [1] (2 days) stood at 6.25 µg/mL. Also, in series [1] (4 days), the “MIC, 4 days” value worked out at 6.25 µg/mL. In addition, in series [2] (setting [5]), the “Solubility in artificial seawater I: Quantitative value of zinc” value amounted to 1.16 µg/mL and the “Solubility in artificial seawater I: Value in terms of zinc pyrithione” value was found to be 5.64 µg/mL.
zinc pyrithione [Sample 9]: the “Yellowness (b* value)” value in series [3] came out at 8.80.
Regarding zinc pyrithione [Sample 6], in series [2] (artificial seawater pH 7.8, 20° C., 24 hours), the “Solubility in artificial seawater II: Value in terms of zinc pyrithione” value amounted to 5.24 µg/mL. Also, in series [2] (artificial seawater pH 7.8, 20° C., 24 hours, for samples 7 and 8 zinc derived from zinc pyrithione and zinc oxide), the “Solubility in artificial seawater II: Quantitative value of zinc” value worked out at 1.07 µg/mL. Besides, the “MIC, 7 days” value in series [4] was determined as 6.25 µg/mL.
